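Tested at 5 concentrations; 48 h exposure; 96-well plates; endpoints linearly interpolated, else capped at highest concentration. The concentration for 50% growth inhibition is given as GI50. TGI denotes the concentration required for complete inhibition of growth.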
What was measured:
Experiment in all cases: DTP human tumour cell line panel, 48 h
CCRF-CEM leukemia = tested on: CCRF-CEM leukemia
EKVX NSCLC = tested on: EKVX NSCLC
M14 melanoma = tested on: M14 melanoma
NCI-H226 lung = tested on: NCI-H226 lung
NCI-H460 lung = tested on: NCI-H460 lung
SK-MEL-28 melanoma = tested on: SK-MEL-28 melanoma
SNB-75 CNS = tested on: SNB-75 CNS
TK-10 renal = tested on: TK-10 renal
U251 CNS = tested on: U251 CNS
MALME-3M melanoma = tested on: MALME-3M melanoma

| SMILES | GI50 (CCRF-CEM leukemia) | TGI (CCRF-CEM leukemia) | GI50 (EKVX NSCLC) | TGI (EKVX NSCLC) | GI50 (M14 melanoma) | TGI (M14 melanoma) | GI50 (NCI-H226 lung) | TGI (NCI-H226 lung) | GI50 (NCI-H460 lung) | TGI (NCI-H460 lung) | GI50 (SK-MEL-28 melanoma) | TGI (SK-MEL-28 melanoma) | GI50 (SNB-75 CNS) | TGI (SNB-75 CNS) | GI50 (TK-10 renal) | TGI (TK-10 renal) | GI50 (U251 CNS) | TGI (U251 CNS) | TGI (MALME-3M melanoma) | GI50 (MALME-3M melanoma) |
| --- | --- | --- | --- | --- | --- | --- | --- | --- | --- | --- | --- | --- | --- | --- | --- | --- | --- | --- | --- | --- |
| O=C(Nc1ccc(-n2cc(-c3ccncc3)c(-c3ccc(Cl)c(O)c3)n2)cc1)c1ccc(Cl)c(Cl)c1 | 4.52 µM | > 100 µM | 5.81 µM | > 100 µM | 2.35 µM | 7.56 µM | 26.1 µM | > 100 µM | 3.09 µM | > 100 µM | 2.94 µM | > 100 µM | 3.92 µM | > 100 µM | > 100 µM | > 100 µM | 2.65 µM | > 100 µM | – | – |
| CN(C)CN(C)c1nc(N(C)C)nc(N(C)C)n1 | – | > 100 µM | – | > 100 µM | – | > 100 µM | – | – | – | > 100 µM | – | > 100 µM | – | > 100 µM | – | > 100 µM | – | > 100 µM | > 100 µM | – |
| Cc1cn([C@H]2CN(O)C[C@@H](CO)O2)c(=O)[nH]c1=O | – | – | – | > 100 µM | – | > 100 µM | – | > 100 µM | – | > 100 µM | – | > 100 µM | – | > 100 µM | – | > 100 µM | – | > 100 µM | – | – |
| CC[C@]1(O)C[C@@H]2CN(CCc3c([nH]c4ccccc34)[C@@](C(=O)OC)(c3cc4c(cc3OC)N(C)[C@H]3[C@@](O)(C(=O)OC)[C@H](OC(=O)CCCBr)[C@]5(CC)C=CCN6CC[C@]43[C@@H]65)C2)C1 | 0.0232 µM | > 100 µM | 0.336 µM | > 100 µM | 0.0543 µM | 25.9 µM | 5.87 µM | 99.7 µM | 0.0245 µM | > 100 µM | – | – | < 0.01 µM | < 0.01 µM | 2 µM | > 100 µM | 0.0334 µM | > 100 µM | – | – |
| O=C(NCCOC(=O)CCCCCCCCC(=O)OCCNC(=O)NC(=O)c1cn(Cc2ccccc2)c(=O)[nH]c1=O)NC(=O)c1cn(Cc2ccccc2)c(=O)[nH]c1=O | – | – | – | > 100 µM | – | > 100 µM | – | > 100 µM | – | > 100 µM | – | > 100 µM | – | > 100 µM | – | > 100 µM | – | > 100 µM | – | – |
| Cc1cc2nc3c(C(OC4OC(CO)C(O)C(O)C4O)C(O)CO)nn(-c4ccc(F)cc4)c3nc2cc1C (configuration not stated) | – | > 100 µM | – | > 100 µM | – | > 100 µM | – | – | – | > 100 µM | – | > 100 µM | – | > 100 µM | – | > 100 µM | – | > 100 µM | > 100 µM | – |
| COc1cc2ccc(CC(=O)O)cc2cc1OC | – | > 100 µM | – | > 100 µM | – | > 100 µM | – | > 100 µM | – | – | – | > 100 µM | – | > 100 µM | – | > 100 µM | – | > 100 µM | > 100 µM | – |
| Fc1cccc(C2ON=C(c3ccccc3)N2C23CC4CC(CC(C4)C2)C3)c1 (configuration not stated) | – | – | – | > 10 µM | – | > 10 µM | – | > 10 µM | – | > 10 µM | – | > 10 µM | – | > 10 µM | – | > 10 µM | – | > 10 µM | > 10 µM | – |
| Cc1ccc(-n2cc(/C(N)=N/O)c3ccccc3c2=O)cc1 | – | > 100 µM | – | > 100 µM | – | > 100 µM | – | > 100 µM | – | > 100 µM | – | > 100 µM | – | – | – | > 100 µM | – | > 100 µM | > 100 µM | – |
| O=C(CC/C(CC(=O)c1ccc(Cl)cc1)=N\O)Nc1cccc(Cl)c1 | – | > 100 µM | – | > 100 µM | – | > 100 µM | – | – | – | > 100 µM | – | > 100 µM | – | > 100 µM | – | > 100 µM | – | > 100 µM | > 100 µM | – |
| Cc1ccccc1NC(=O)C(=O)CC(=O)c1sc(-n2nc(-c3ccccc3)cc2-c2ccccc2)nc1C | – | > 100 µM | – | > 100 µM | – | > 100 µM | – | > 100 µM | – | > 100 µM | – | – | – | > 100 µM | – | > 100 µM | – | > 100 µM | > 100 µM | – |
| CN(Cc1cnc2nc(N)nc(N)c2n1)c1c(Cl)cc(C(=O)NC(CCC(=O)O)C(=O)O)cc1Br (configuration not stated) | < 0.01 µM | > 100 µM | < 0.0282 µM | > 100 µM | < 0.01 µM | > 100 µM | 0.0237 µM | > 100 µM | < 0.01 µM | > 100 µM | > 23.8 µM | > 100 µM | – | – | < 0.01 µM | > 100 µM | < 0.0237 µM | > 100 µM | > 100 µM | 0.0322 µM |
| CCCCCCC1CCCCN1C(c1ccccc1)C(O)c1ccccc1 (configuration not stated) | – | – | 5.87 µM | 21.3 µM | 2.95 µM | 11.4 µM | 7.74 µM | 21.9 µM | 3.92 µM | 13.6 µM | 9.99 µM | 22.1 µM | 11.4 µM | 23.7 µM | 14.2 µM | 27.6 µM | 5.98 µM | 18.9 µM | 19.7 µM | 5.37 µM |
| COc1cc2c(c(OC)c1OC)-c1ccc(SC)c(=O)cc1C(CC(=O)Oc1ccccc1F)C2 (configuration not stated) | – | > 7.5 µM | – | – | – | 0.908 µM | – | 0.444 µM | – | > 7.5 µM | – | > 7.5 µM | – | > 7.5 µM | – | > 7.5 µM | – | 0.108 µM | > 7.5 µM | – |
| Cc1cc(N(CCC#N)CCC#N)ccc1/C=C1N=C(/C=C\c2ccccc2)N(c2ccc(C(=O)O)cc2)C\1=O | – | > 100 µM | – | – | – | > 100 µM | – | > 100 µM | – | > 100 µM | – | > 100 µM | – | > 100 µM | – | > 100 µM | – | > 100 µM | > 100 µM | – |
| Cc1ncc([N+](=O)[O-])n1CCOc1ccc(C(=O)/C=C/c2ccc(C(F)(F)F)cc2)cc1 | 2.02 µM | 6 µM | – | – | 3.85 µM | 14.8 µM | 4.25 µM | 20.4 µM | 4.09 µM | 15 µM | 10.2 µM | 21.9 µM | 2.57 µM | 12.8 µM | – | – | 1.51 µM | 3.08 µM | – | – |
| C=C(/C=C/C=C(\CO)CCC=C(C)C)[C@H]1CCC2([C@H](CCCO)/C(=C(/C)C=O)CC[C@]2(C)O)[C@H]1O (some centres not stated) | – | > 100 µM | – | > 100 µM | – | > 100 µM | – | – | – | > 100 µM | – | > 100 µM | – | > 100 µM | – | > 100 µM | – | > 100 µM | > 100 µM | – |
| CC1(C)N=C(N)N=C(N)N1c1ccc(CCCCCCc2ccc(S(=O)(=O)F)cc2)cc1 | – | – | – | 21.3 µM | – | 28.7 µM | – | 1.96 µM | – | > 37.8 µM | – | 37.7 µM | – | 24.8 µM | – | 15.9 µM | – | 16.6 µM | 3.79 µM | – |
| O=C([CH-]C(=O)c1ccccc1)c1ccccc1.[CH2-]C.[CH2-]C.[Tl+3] | – | – | 19.7 µM | 80.1 µM | 18.5 µM | 68.5 µM | 0.0266 µM | 2.38 µM | 10.8 µM | > 100 µM | 33.5 µM | > 100 µM | 25.2 µM | > 100 µM | 55 µM | > 100 µM | 11.8 µM | > 100 µM | > 76.7 µM | 21.3 µM |
